For 75 compounds, IC50 (inhibition of PLAP activity) results are on record in PubChem BioAssay AID493139 (Sanford-Burnham Center for Chemical Genomics, 2011).

Calls of active or inactive are those of the source. No rule for the calls is given here.

Sequence of Alkaline phosphatase, germ cell type (Homo sapiens) (P10696 whole entry, looked up): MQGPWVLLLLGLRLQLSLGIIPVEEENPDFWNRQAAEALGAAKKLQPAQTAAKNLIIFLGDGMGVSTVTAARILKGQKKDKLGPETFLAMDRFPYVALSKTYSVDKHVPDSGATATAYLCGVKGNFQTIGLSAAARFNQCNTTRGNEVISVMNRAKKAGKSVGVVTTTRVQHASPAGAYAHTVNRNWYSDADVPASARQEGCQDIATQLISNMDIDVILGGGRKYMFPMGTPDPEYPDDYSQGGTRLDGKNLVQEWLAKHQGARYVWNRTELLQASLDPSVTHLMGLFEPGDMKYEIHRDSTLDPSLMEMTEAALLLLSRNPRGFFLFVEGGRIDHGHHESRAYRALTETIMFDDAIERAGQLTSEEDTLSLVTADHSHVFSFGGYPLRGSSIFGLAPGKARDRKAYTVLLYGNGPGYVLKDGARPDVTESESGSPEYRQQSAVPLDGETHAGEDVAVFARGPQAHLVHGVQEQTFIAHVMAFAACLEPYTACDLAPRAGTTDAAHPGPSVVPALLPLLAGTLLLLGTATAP

The assay has as its target Alkaline phosphatase, germ cell type (Homo sapiens) (UniProt P10696). Description: placental-like alkaline phosphatase activators or inhibitors – biochemical, human placental-like ALPPL2 isozyme, selectivity assay for mouse IAP activator project, SAR follow-up (AID 493139). The following applies: purified human placental-like alkaline phosphatase, enzymatic activity.
With `CCN(CC)C(=O)CSc1sc2c(O)cc(=O)[nH]c2c1C#N`, the IC50 (inhibition of PLAP activity) is > 100 µM (inactive).
Under `CCc1nnc(NC(=O)CSc2sc3c(O)cc(=O)[nH]c3c2C#N)s1` stands > 100 µM (inactive); under `COc1ccccc1CNC(=O)CCNS(=O)(=O)c1ccc2[nH]c(=O)oc2c1`, > 100 µM (inactive).
As for `O=C(NNC(=O)c1cc(O)c(O)c(O)c1)NC1CCCCC1`, the IC50 (inhibition of PLAP activity) was 53.5 µM.
`COc1ccc(NC(=S)NCCC(c2ccccc2)c2ccccc2)cc1`: the IC50 (inhibition of PLAP activity) was 40.7 µM.
As for `N#Cc1c(SCC(=O)Nc2ccc(C(F)(F)F)cc2)sc2c(O)cc(=O)[nH]c12`, the IC50 (inhibition of PLAP activity) was > 100 µM (inactive).
Consider `COc1cccc(CNC(=O)CCNS(=O)(=O)c2ccc3[nH]c(=O)oc3c2)c1`, for which the IC50 (inhibition of PLAP activity) is > 100 µM (inactive).
Take `O=C(CN1C(=O)/C(=C/c2ccco2)SC1=S)NC1CCS(=O)(=O)C1` (stereo not given): the IC50 (inhibition of PLAP activity) is > 100 µM (inactive).
With `COc1cc(C(=O)NNC(=S)NC(=O)c2ccc(Cl)cc2)cc(OC)c1OC` the figure was 22 µM.
Under `O=C(CN1C(=O)/C(=C\c2ccco2)SC1=S)Nc1ccc(C(=O)O)cc1` stands > 100 µM (inactive); under `O=S(=O)(Nc1ncccn1)c1ccc(NC(=S)NCCC(c2ccccc2)c2ccccc2)cc1`, > 100 µM (inactive).
With `O=C(CN1C(=O)/C(=C/c2ccco2)SC1=S)Nc1ccc(C(=O)O)c(O)c1` the figure was 78.4 µM.
Turning to `CCc1ccc(NC(=O)CN(C)S(=O)(=O)c2ccc3[nH]c(=O)oc3c2)cc1`, the IC50 (inhibition of PLAP activity) was > 100 µM (inactive).
Under `N#Cc1c(SCC(=O)Nc2ccc(Cl)cc2Cl)sc2c(O)cc(=O)[nH]c12` stands > 100 µM (inactive).
With `O=C(CCCN1C(=O)/C(=C\c2ccco2)SC1=S)Nc1ccc(O)cc1C(=O)O` the figure was > 100 µM (inactive); with `COC(=O)NNC(=O)c1cc(OC)c(OC)c(OC)c1`, > 100 µM (inactive); with `COc1ccc(NC(=O)C(CC(C)C)NS(=O)(=O)c2ccc3[nH]c(=O)oc3c2)cc1` (stereo not given), > 100 µM (inactive).
Under `O=C(CN1C(=O)/C(=C\c2ccco2)SC1=S)Nc1ccccc1C(=O)O` stands > 100 µM (inactive); under `S=C(NCCC(c1ccccc1)c1ccccc1)Nc1ccc(Cl)cc1Cl`, 72.1 µM.
Regarding `O=C(N/N=C/c1ccc(F)cc1)c1cc(O)c(O)c(O)c1`, the IC50 (inhibition of PLAP activity) was > 100 µM (inactive).
With `COc1ccccc1NC(=O)CCNS(=O)(=O)c1ccc2[nH]c(=O)oc2c1`, the IC50 (inhibition of PLAP activity) was > 100 µM (inactive).
With `COc1ccccc1NC(=O)CSc1sc2c(O)cc(=O)[nH]c2c1C#N` the figure was > 100 µM (inactive); with `COc1ccc(NC(=O)CSc2sc3c(O)cc(=O)[nH]c3c2C#N)c(OC)c1`, > 100 µM (inactive).
Under `N#Cc1c(SCC(=O)Nc2cccc(F)c2)sc2c(O)cc(=O)[nH]c12` stands > 100 µM (inactive); under `O=C(CCNS(=O)(=O)c1ccc2[nH]c(=O)oc2c1)Nc1ccccc1`, > 100 µM (inactive).
With `O=C(CCN1C(=O)/C(=C/c2ccco2)SC1=S)Nc1ccc(C(=O)O)c(O)c1` the figure was > 100 µM (inactive); with `C/C(=N\NC(=O)c1cc(O)c(O)c(O)c1)c1ccncc1`, > 100 µM (inactive); with `O=C(CN1C(=O)/C(=C/c2ccco2)SC1=S)Nc1ccc(O)c(C(=O)O)c1`, 27 µM.
Regarding `Cc1cc(=O)oc2cc(NC(=S)NCCC(c3ccccc3)c3ccccc3)ccc12`, the IC50 (inhibition of PLAP activity) is > 100 µM (inactive).
With `CCOc1cccc(NC(=O)CSc2sc3c(O)cc(=O)[nH]c3c2C#N)c1` the figure was > 100 µM (inactive); with `O=C(N/N=C/c1ccsc1)c1cc(O)c(O)c(O)c1`, > 100 µM (inactive); with `O=C(CN1C(=O)/C(=C\c2ccco2)SC1=S)Nc1cccc(C(=O)O)c1`, > 100 µM (inactive).
With `O=C1/C(=C/c2ccco2)SC(=S)N1C1CCS(=O)(=O)C1` (stereo not given) the figure was 17.9 µM; with `N#Cc1c(SCC(=O)Nc2nc3ccc(Br)cc3s2)sc2c(O)cc(=O)[nH]c12`, > 100 µM (inactive).
Under `O=C(N/N=C/c1ccco1)c1cc(O)c(O)c(O)c1` stands > 100 µM (inactive); under `COc1cc(C(=O)NNC(=O)C2CC2)cc(OC)c1OC`, > 100 µM (inactive); under `COc1cccc(/C=N/NC(=O)c2cc(O)c(O)c(O)c2)c1`, > 100 µM (inactive).
As to `CC(C(=O)NCCc1ccc(O)c(O)c1)N1C(=O)/C(=C\c2ccco2)SC1=S` (stereo not given), the IC50 (inhibition of PLAP activity) was > 100 µM (inactive).
With `Cc1ccc(NC(=O)CCNS(=O)(=O)c2ccc3[nH]c(=O)oc3c2)cc1N(C)C` the figure was > 100 µM (inactive).
Under `CCSc1nnc(NC(=O)CSc2sc3c(O)cc(=O)[nH]c3c2C#N)s1` stands > 100 µM (inactive).
Under `N#Cc1c(SCC(=O)NCc2ccc3c(c2)OCO3)sc2c(O)cc(=O)[nH]c12` stands > 100 µM (inactive); under `N#Cc1cccc(NC(=O)CSc2sc3c(O)cc(=O)[nH]c3c2C#N)c1`, > 100 µM (inactive); under `O=C(CN1C(=O)/C(=C/c2ccco2)SC1=S)NC1C=CS(=O)(=O)C1` (stereo not given), 28.5 µM.
As to `CSc1cccc(NC(=O)CCNS(=O)(=O)c2ccc3[nH]c(=O)oc3c2)c1`, the IC50 (inhibition of PLAP activity) was > 100 µM (inactive).
Under `Cc1cc(NC(=O)CSc2sc3c(O)cc(=O)[nH]c3c2C#N)ccc1Br` stands > 100 µM (inactive); under `CCOC(=O)N1CCC(NC(=O)CSc2sc3c(O)cc(=O)[nH]c3c2C#N)CC1`, > 100 µM (inactive).
With `Cc1ccc(Cl)cc1NC(=O)CSc1sc2c(O)cc(=O)[nH]c2c1C#N` the figure was > 100 µM (inactive).
With `CC(C)c1ccc(NC(=O)CCNS(=O)(=O)c2ccc3[nH]c(=O)oc3c2)cc1` the figure was > 100 µM (inactive); with `CCOc1ccccc1NC(=O)CCNS(=O)(=O)c1ccc2[nH]c(=O)oc2c1`, > 100 µM (inactive).
As for `O=C(CN1C(=O)/C(=C/c2ccco2)SC1=S)NCCc1ccc(O)cc1`, the IC50 (inhibition of PLAP activity) is > 100 µM (inactive).
Under `N#Cc1c(SCC(=O)Nc2nc3ccccc3s2)sc2c(O)cc(=O)[nH]c12` stands > 100 µM (inactive); under `COc1cc(C(=O)NNc2nc3cc4c(cc3s2)OCO4)cc(OC)c1OC`, 15.3 µM.
With `Cc1ccc(NC(=O)CCNS(=O)(=O)c2ccc3[nH]c(=O)oc3c2)c(C)c1` the figure was > 100 µM (inactive); with `CCOc1ccccc1CNC(=O)CCNS(=O)(=O)c1ccc2[nH]c(=O)oc2c1`, > 100 µM (inactive).
`N#Cc1c(SCC(=O)Nc2nncs2)sc2c(O)cc(=O)[nH]c12`: the IC50 (inhibition of PLAP activity) is > 100 µM (inactive).
In the case of `Cc1ccc(/C=N/NC(=O)c2cc(O)c(O)c(O)c2)cc1`, the IC50 (inhibition of PLAP activity) is > 100 µM (inactive).
With `CC(C)NC(=O)CSc1sc2c(O)cc(=O)[nH]c2c1C#N` the figure was > 100 µM (inactive); with `NS(=O)(=O)c1ccc(-c2ccc(/C=C3\SC(=S)N(C4CCS(=O)(=O)C4)C3=O)o2)cc1` (stereo not given), > 100 µM (inactive); with `CC(C(=O)N(C)C1CCS(=O)(=O)C1)N1C(=O)/C(=C/c2ccco2)SC1=S` (stereo not given), > 100 µM (inactive).
With `O=C(CCNS(=O)(=O)c1ccc2[nH]c(=O)oc2c1)Nc1cccc(-c2ccno2)c1` the figure was > 100 µM (inactive); with `CN(C(=O)CN1C(=O)/C(=C\c2ccco2)SC1=S)C1CCS(=O)(=O)C1` (stereo not given), > 100 µM (inactive); with `CCCSc1nnc(NC(=O)CSc2sc3c(O)cc(=O)[nH]c3c2C#N)s1`, > 100 µM (inactive).
Under `Cc1ccc(/C=C2\SC(=S)N(C3CCS(=O)(=O)C3)C2=O)o1` (stereo not given) stands > 100 µM (inactive); under `O=C(O)CC(C(=O)O)N1C(=O)/C(=C/c2ccc(-c3nc4ccccc4s3)o2)SC1=S` (stereo not given), > 100 µM (inactive); under `O=C(CCN1C(=O)/C(=C\c2ccco2)SC1=S)Nc1ccc(C(=O)O)c(O)c1`, > 100 µM (inactive).
Take `O=C(C1CCN(S(=O)(=O)c2ccc3[nH]c(=O)oc3c2)CC1)N1CC=C(c2ccccc2)CC1`: the IC50 (inhibition of PLAP activity) is > 100 µM (inactive).
With `CC(C)C(C(=O)NC1CCS(=O)(=O)C1)N1C(=O)/C(=C\c2ccco2)SC1=S` (stereo not given) the figure was > 100 µM (inactive); with `Cc1csc(NC(=O)CSc2sc3c(O)cc(=O)[nH]c3c2C#N)n1`, > 100 µM (inactive); with `Cc1ccc(NC(=O)CSc2sc3c(O)cc(=O)[nH]c3c2C#N)c(F)c1`, > 100 µM (inactive).
With `COc1cc(C(=O)NN=Cc2ccccn2)cc(OC)c1OC` the figure was 31.3 µM; with `CCN(C(=O)CN1C(=O)/C(=C\c2ccco2)SC1=S)C1CCS(=O)(=O)C1` (stereo not given), > 100 µM (inactive).
With `COc1ccc(Cl)cc1NC(=O)CSc1sc2c(O)cc(=O)[nH]c2c1C#N` the figure was > 100 µM (inactive); with `CCN(C(=O)C(C)N1C(=O)/C(=C/c2ccco2)SC1=S)C1CCS(=O)(=O)C1` (stereo not given), > 100 µM (inactive).
In the case of `O=C(N/N=C/C1CC2CCC1C2)c1cc(O)c(O)c(O)c1` (stereo not given), the IC50 (inhibition of PLAP activity) is > 100 µM (inactive).
Under `O=C(c1ccco1)N1CCN(S(=O)(=O)c2ccc3[nH]c(=O)oc3c2)CC1` stands > 100 µM (inactive).
